Experiments:
[1] = molecular target: T1, hCatB (Human Cathepsin B) (Homo sapiens, UniProt P07858); experiment: fluorogenic inhibition assay, Z-FR-AMC ([…]); format: biochemical; settings: 0.1 M sodium acetate pH 5.5, 2.5 mM DTT, 2.5 mM EDTA, room temperature
T1 construct: gene CTSB; recombinant human enzyme, gift of J. Mort

[2] = molecular target: T2, hCatL (human Cathepsin L) (Homo sapiens, UniProt P07711); experiment: fluorogenic inhibition assay, Z-FR-AMC ([…]); format: biochemical; settings: 0.1 M sodium acetate pH 5.5, 2.5 mM DTT, 2.5 mM EDTA, room temperature
T2 construct: gene CTSL; native enzyme from human liver, commercial (Fisher Scientific)
T2 sequence (P07711 114-288): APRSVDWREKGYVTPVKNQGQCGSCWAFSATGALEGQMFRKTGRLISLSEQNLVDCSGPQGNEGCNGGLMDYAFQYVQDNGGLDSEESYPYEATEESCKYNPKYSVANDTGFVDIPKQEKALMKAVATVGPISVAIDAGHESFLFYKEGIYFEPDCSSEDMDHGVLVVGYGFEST
T2 sequence (P07711 292-333): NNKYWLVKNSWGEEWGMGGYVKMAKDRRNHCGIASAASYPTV

Question: What does the source list for CC(C)(C)[C@H](NC(=O)C(F)(F)F)C(=O)N1C[C@H]2[C@@H]([C@H]1C(=O)N[C@H](C#N)C[C@@H]1CCNC1=O)C2(C)C [Nirmatrelvir]?
Answer: not inhibited by 10 μM [1]: > 10 µM; not inhibited by 10 μM [2]: > 10 µM
